Measured values as given in US20200109362A1 (priority 2016, published 2020).
“Also recorded” adds a separate entry of the source.

Tests used:
Assay type in all cases: cell-based, human
MCL-5 cells = assay: ToxChip (μCC) microcolony toxicity assay, MCL-5 cells
TK6 cells = tested on: TK6 cells
TK6+MGMT cells = assay: ToxChip (μCC) microcolony toxicity assay, TK6+MGMT cells; conditions: TK6+MGMT vs TK6

In the case of aflatoxin B1 [AFB1], the “difference in sensitivity between TK6 and MCL-5 cells” value (MCL-5 cells) is reported as “more than 2 log”, the “sensitivity of MCL-5 cells compared with TK6 cells” value (MCL-5 cells) is reported as “significantly more sensitive” and the “toxicity to TK6 cells” value (TK6 cells) is reported as “relatively unaffected”.

For CC(=O)N1CCN(c2ccc(OCC3COC(Cn4ccnc4)(c4ccc(Cl)cc4Cl)O3)cc2)CC1 (stereo not drawn) [KET, ketoconazole], the “rescue of MCL-5 cells from AFB1 toxicity by co-treatment” value (MCL-5 cells) was “significant rescue; also recorded: significantly rescues”.

For O=NN(CCCl)C(=O)NCCCl [BCNU, N,N′-bis (2-chloroethyl)-N-nitrosourea], the “PF value as % of the control PF” value (TK6 cells; TK6 cells, 10 μM BCNU) was 96%, the “PFF (total PF fluorescence) as % of the control PFF” value (TK6 cells; TK6 cells, 10 μM BCNU) was 53% and the “microcolony growth (F/M distribution) after treatment” value (TK6 cells; TK6 cells, BCNU 1 hour, up to 72 hours growth) was “less able to form larger colonies; also recorded: inhibits growth of colonies”. The “difference in survival between TK6 and TK6+MGMT when challenged” value (TK6+MGMT cells; PFF method) was “approximately 1 log” and the “difference in sensitivity between TK6 and TK6+MGMT” value (TK6+MGMT cells; μCC, treatment 1 hour at 37° C.) was “significant difference in sensitivity; also recorded: MGMT significantly rescues TK6 cells”.
